Data published in patent publication US11866455B2, “Gold(III) complex, a conjugate of the gold(III) complex, a pharmaceutical composition comprising the gold(III) complex and uses and a process for preparing the gold(III) complex” (UNIVERSIDAD DE ALMERIA, priority 2018, dated 2024).
In brackets after ≈: the same amount, converted by molar mass. Where two headings read alike, the source gives them in different places.

How the values were obtained:
[1] = system: MRSA methicillin resistant S. aureus; assay: Antimicrobial activity (MIC) against S. aureus / MRSA; assay type: cell-based; conditions: Staphylococcus aureus, Cli, Eri, Pen, Lvx
[2] = system: MRSA methicillin resistant S. aureus; assay: Antibiofilm activity (MBIC) against MRSA; assay type: cell-based; conditions: Cli, Eri, Pen, Lvx
[3] = Stability studies by 1H and 31P NMR; assay type: physicochemical; conditions: for stability towards reducing agent (31P NMR): CD3CN/H2O
Procedure: A solution of compound 2f in CD3CN (0.25 mL) was mixed with 0.25 mL of saline phosphate buffer (pH 7.4) in D2O and the mixture was monitored at 37° C. over three days through ^1H and ^31P NMR spectroscopy. […] Such observations show a substantial evidence for the stability of complexes 2 under physiological conditions.
Complexes 2 are also stable in the conditions used for the biological activity assays, as evidenced by the ^31P NMR spectra of a solution of compound 2f in CD3CN (0.25 mL) and 0.25 mL of ISOsensitest culture broth prepared in D2O (FIG. 15).
To gain a more complete picture of the stability and the solution behavior of these gold(III) compounds 2, the spectral changes produced by addition of classical reducing agents, i.e. glutathione (GSH) and ascorbic acid (AsAc) were also examined. Thus, solutions of compound 2f in CD3CN (0.25 mL) were mixed with solutions containing equimolar amounts of either GSH or AsAc in 0.25 mL of H2O.

[4] = system: A. baumannii; assay: MIC against A. baumannii, alone and in combination with colistine; assay type: cell-based

For `C[C@H]1COc2c(N3CCN(C)CC3)c(F)cc3c(=O)c(C(=O)O)cn1c23` [Levofloxacin, levofloxacin], the MIC ([1]; MRSA, strain MRSA 1, resistance profile Cip) was 128 µg/mL (≈ 354 µM), the MIC ([1]; strain MRSA 2, resistance profile Gen, Cip, read-out: MIC) was 64 µg/mL (≈ 177 µM) and the MBIC ([2]; strain MRSA 1, resistance profile Cip) was over 256 mg/L. The MBIC ([2]; strain MRSA 2, resistance profile Gen, Cip) was 128 mg/L.
With “[Gold(III) 2-((diisopropylamino)(phenyl)phosphorothioyl)phenyl) (pirrolidin-1-dithiocarbamate)] hexafluorophosphate [Compound 2f]” the “stability in the conditions of the biological activity assays” value ([3]; CD3CN / ISOsensitest culture broth in D2O) was “stable”, the “31P NMR signal of the complex (stability)” value ([3]; CD3CN / saline phosphate buffer (pH 7.4) in D2O, 37° C., three days) was “remained unaltered” and the “stability towards reducing agent (31P NMR)” value ([3]; equimolar ascorbic acid (AsAc)) was “maintained its chemical integrity”. The “stability towards reducing agent (31P NMR)” value ([3]; equimolar glutathione (GSH)) was “maintained its chemical integrity”.
colistine gave an MIC ([4]; each antibiotic separately) of 64 µg/mL and an MIC in combination ([4]; gold(III) complex and colistine used in combination) of 1 µg/mL.
